Data on three molecules can be found in patent US20200055821A1, “METHOD FOR MANUFACTURING DIASTEREOMER OF CITRIC ACID DERIVATIVE” (OTSUKA PHARMACEUTICAL FACTORY, INC., priority 2017, published 2020).

SMILES strings stand for the structures.

Series [1] is described as follows: solubility in isopropanol-water mixed solvent. The class given is physicochemical. The settings on record: mixed solvent of isopropanol and water, ratio of isopropanol 40% or higher. On the procedure:
A highly purified crystalline powder of the compound A was obtained by repeating three times the same operation as in the recrystallization described in the paragraph of Example 3. 100 mL of purified water (Japanese Pharmacopoeia purified water) was added to 10 g of the crystalline powder, which was then dissolved by heating the resultant in a water bath at 50° C. The resultant solution was filtered by using a membrane filter (Merck Millipore) of 0.22 μm in pore size, and the resultant filtrate was collected. The filtrate was concentrated by using an evaporator on a water bath at 40° C. to thereby collect the resultant as an about 50 ml of a solution. This solution was concentrated and […] to thereby become a solution in a supersaturated state. The solution as it was in the heated state (40° C.) was dispensed in test tubes with a lid so as to have solvent ratios indicated in the following Table (Table 4) to thereby produce solutions having mixed solvents. Specifically, by adding 100 μL of organic solvents of methanol, ethanol, acetone and the like to 400 μL of the supersaturated solution, there was made a solution having a water ratio in the mixed solvent of 80%. […]

Series [2] concerns liver disorder. The note with it: known active substance; cited from earlier work.
Series [3] can be described thus: stability of compound A in aqueous solution by pH (hydrolysis seen by HPLC). The class given is physicochemical. The source says: The difficult point when the crystal of the compound A is obtained by the present method is in removing citric acid from the aqueous solution containing the compound A and citric acid in an acidic condition. Since the compound A is unstable in a neutral to alkaline (pH of 5 or higher) aqueous solution, in order to suppress decomposition of the compound A, maintenance of an acidic condition is important. Therefore, the aqueous solution containing the compound A and citric acid and having a pH of 2.0 or lower to be used in the step (a) may be an aqueous solution whose pH is preferably 0.6 to 1.8 and most preferably 1.0 to 1.6. […]
The purified precipitate obtained at a pH of 3.6 by the above operation and the purified precipitate obtained at a pH of 6.0 thereby were each evaluated by qualitative analysis using HPLC (FIG. 5, FIG. 6). The each precipitate (about 10 mg) was dissolved in purified water (about 1 mL), diluted 40-fold with a 10 mM perchloric acid solution being a mobile phase of the qualitative analysis using HPLC, and analyzed (by being diluted with the 10 mM perchloric acid solution, which was an acidic solvent, the Ca salts of the compound A were converted to the compound A, thus the detection was made as the compound A.). […]

Series [4] is described as follows: hygroscopicity and handling of the solid. The settings on record: when concentrated and solidified / powder. In kind it is physicochemical. The source says: On the other hand, the crystal of the compound A was a non-hygroscopic powder, which was easily handled.

Regarding `O=C(O)CC(C(=O)O)N1C(=O)CC(O)(CC(=O)O)C1=O` (stereo not drawn) [compound A], the solubility entry in series [1] is given as “decreased”. Besides, in series [2], the “inhibitory effect against liver disorder” value is “inhibitory effect against liver disorder”. Besides, the “hydrolysis of the imide structure” value in series [3] (alkali added for the pH to be 6.0, 80% ethanol precipitation, HPLC) is “hydrolysis of the compound A progressed”. In addition, the “stability in aqueous solution” value in series [3] (neutral to alkaline (pH of 5 or higher) aqueous solution) is given as “unstable”.
For `O=C(O)CC(C(=O)O)N1C(=O)C[C@@](O)(CC(=O)O)C1=O` (stereo partly drawn) [crystal of the compound A], the hygroscopicity entry in series [4] is listed as “non-hygroscopic”.
For the molecule `O=C(O)C[C@@H](C(=O)O)N1C(=O)C[C@@](O)(CC(=O)O)C1=O` [noncrystal of the compound A], the hygroscopicity result in series [4] was “had hygroscopicity”.
